Experimental data as given in patent US20260209305A1, “THERAPEUTIC EXPLOITATION OF STING CHANNEL ACTIVITY” (The Broad Institute Inc., priority 2022, published 2026).

Key:
[1] = system: NLRP3 inflammasome; test: Inflammasome activation and IL-1ß release in primary human monocytes; assay type: cell-based
[2] = system: STING; test: RFP-LC3 induction and pSTING by FACS in HEK293T cells expressing STING WT or H50R; assay type: cell-based, human; conditions: mutant vs WT STING, FIP200 KO 293T cells, agonist stimulation
Experimental: FACS based genome-wide CRISPR screen and mutagenesis screen: FIP200 KO 293T cells were generated by transfecting 293T cells with pXPR_023 (Addgene #52961), encoding Cas9 and an sgRNA against FIP200 and selecting cells with 2 μg/ml puromycin (Thermo Fisher Scientific #A1113803) for two days. FIP200 KO 293T cells were then transduced with pTRIP-PGK-Hygro-P2A-RFP-LC3, treated with 33 μg/ml hygromycin (Invivogen, #ant-hg-1) for 3 days, and then sorted to get a homogenous RFP+ population.
Mutagenesis screen: RFP-LC3 FIP200 KO 293T cells were infected with saturated mutagenesis library lentivirus at MOI=0.2, and selected with 20 μg/ml blasticidin for 2 days. 150M transduced cells were treated with diABZI for 1.5 hr, and then permeabilized with 1× perm buffer (PBS with 0.05% saponin and 0.1% glycine) for 4 min. Permed cells are then washed with 1×PBS, and fix, perm, and stained using BD Cytofix/Cytoperm kit and anti-pSTING Alexa647 (CST, #43499) at 1:100 dilution.
A sorting strategy similar to the genome-wide CRISPR screen was followed, sorting populations of LC3− and LC3+ HEK293T cells within the pSTING+ cell population (FIG. 3E), thus ensuring that the sorted cell mutants enabled expression of functional STING able to translocate to Golgi/endosomes where phosphorylation of STING occurs (Dobbs et al. 2015). […]
Target sequence in this assay (Q86WV6 153-340 limits assumed): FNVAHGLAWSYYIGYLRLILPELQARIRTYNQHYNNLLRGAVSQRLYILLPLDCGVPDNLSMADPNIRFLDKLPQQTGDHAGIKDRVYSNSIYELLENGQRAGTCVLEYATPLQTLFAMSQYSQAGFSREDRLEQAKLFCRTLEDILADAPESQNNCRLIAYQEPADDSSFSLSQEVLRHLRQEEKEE

[3] = biological target: T1, STING (Homo sapiens, UniProt Q86WV6); test: STING-induced autophagy: LC3 lipidation, RFP-LC3 imaging in FIP200 KO 293T cells and western blot in BJ1 cells; assay type: cell-based; set-up: expressed in transfected cells; host or cells: FIP200 KO 293T cells, lentiviral transduction; conditions: 1 hour; for LC3 lipidation upon agonist treatment: 20 ug/ml cGAMP, 40 μM MSA2 or 1 μM diABZI
T1 sequence (Q86WV6 whole entry, the tested form may be a part): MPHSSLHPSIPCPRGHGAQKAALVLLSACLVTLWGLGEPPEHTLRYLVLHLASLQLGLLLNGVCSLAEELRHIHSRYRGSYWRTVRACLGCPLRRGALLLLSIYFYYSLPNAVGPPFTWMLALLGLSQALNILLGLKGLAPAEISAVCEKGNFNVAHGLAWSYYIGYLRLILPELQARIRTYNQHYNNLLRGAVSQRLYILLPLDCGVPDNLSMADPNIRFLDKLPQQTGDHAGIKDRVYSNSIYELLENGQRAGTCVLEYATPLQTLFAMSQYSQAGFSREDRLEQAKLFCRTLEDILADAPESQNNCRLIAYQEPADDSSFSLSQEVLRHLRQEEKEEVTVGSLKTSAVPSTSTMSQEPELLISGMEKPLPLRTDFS
Experimental: Cells were then fixed with 2% Paraformaldehyde (Electron Microscopy Sciences) in PHEM buffer (Electron Microscopy Sciences) for 30 minutes at 37° C., washed three times with PBS and quenched with freshly prepared 0.1M Glycine for 10 minutes. Coverslips were then permeabilized and blocked with 1× perm/stain buffer (10% goat serum (Thermo Fisher) in PBS, 0.5% BSA (Seracare), 0.05% Saponin from quillaja barka (Sigma)) for 30 minutes. […] Coverslips were then washed 5 times, mounted with Fuoromont-G, with DAPI (Thermo Fisher) and dried at 37° C. for one hour. Images were acquired on Olympus. Images were acquired on an Olympus IX83 using an Olympus UApo 40× objective controlled by Fluoview software.
Western Blotting: BJ1 cells were seeded at 0.15 million cells/well density in a 24 well plate the night before stimulation. […] Cells were then harvested and lysed in 100 ul of 1×SDS sample buffer (Boston Bio, #BP111NR).
Cells were segmented by thresholding the DAPI signal to identify nuclei and expanding the resulting regions using the seeded watershed method. Cells were segmented based on background in the Lysosensor, LC3B-RFP, and NLRP3 mNeonGreen channels. For the live-cell imaging and NLRP3 stimulation experiments, background was subtracted using the rolling ball algorithm. Puncta or Golgi structures enhanced using a Laplacian of Gaussian filter with sigma=12 (live-cell), sigma=8 (NLRP3), or sigma=7 (LC3B).

[4] = system: STING; test: p-STING and LC3B lipidation immunoblot in 293T cells expressing WT STING, STING AQQA or TMEM192-STING-LBD; assay type: cell-based, human; conditions: 293T cells expressing the STING construct
Experimental: Genes that are essential for mediating STING-induced autophagy were systematically identify, with a special interest in identifying potential transporters responsible for ion leakage. […] A genome-wide CRISPR fluorescence-activated cell sorting (FACS) screen was carried out using HEK293T cells expressing RFP-LC3 and STING-HA with FIP200 knocked out in order to reduce background signal from basal autophagy. Following transduction with the sgRNA library, cells were stimulated with diABZI to induce STING activation and STING-HA+ cells were sorted into LC3− and LC3+ bins (FIG. 1A) to specifically identify genes that altered CASM activation without affecting STING activation. […] The STING itself may have mediated Golgi/endosomes proton leakage critical for subsequent assembly of V-ATPase and recruitment of ATG16L1 to initiate CASM (Xu et al. 2019). In order to assess this, whether the STING ligand-binding domain (LBD), which has been proposed to recruit LC3 through its LR motifs (Gui et al. 2019; Liu et al. 2019), could induce autophagy upon translocation to Golgi/endosomes was first tested. Autophagy induction was tested in 293T cells by WT STING, a STING oligomerization-deficient mutant (A277Q/Q273A STING, termed AQQA), and an endolysosome-localized STING fusion protein (the endolysosomal protein TMEM192 fused with the STING LBD) upon agonist stimulation. […]

[5] = biological target: T1, STING; test: Organelle pH measurement (Lysosensor) after STING activation in BJ1 cells; assay type: cell-based; conditions: human fibroblasts (BJ1), 1 μM diABZI, 1 hr
Experimental: Organelle pH Measurements and Image Acquisition: hTERT-immortalized BJ1 cells (ATCC CRL-2522) were plated in 24-well glass-bottom plates (Greiner Bio-One). After 24 hours, cells were stained for 30 minutes at 37° C. with 5 μM Lysosensor (Thermo Fisher Scientific cat #L7535), […] Hoechst (Thermo Fisher Scientific, cat. #62249), and 1 μM Bodipy TR Ceramide (Thermo Fisher Scientific cat #B34400) for Golgi labeling or 100 nM Lysotracker Deep Red (Thermo Fisher Scientific cat #L12492) for endolysosome labeling in Phenol-free DMEM medium with 10% FBS and 1% Pen-Strep. Cells were then washed five times with Phenol-free DMEM medium and stimulated with 1 μM DIABZI for 1 hr with or without the addition of 10 μM C53. […] An LED light engine (Lumencor CELESTA Light Engine) was used for fluorescence illumination and all hardware was controlled using NIS elements software. […]
Given the necessity of both the STING transmembrane domain and its translocation for autophagy induction, it was investigated whether the entire STING protein could cause ion leakage by either inducing membrane damage resulting in a secondary ion imbalance or by directly acting as an ion channel. […] The possibility that STING directly behaves as a channel for proton release into the cytosol upon translocation to the Golgi was assessed, the Golgi being an acidic compartment (Linders et al. 2022). […]

[6] = system: NLRP3; test: NLRP3-mNeongreen reporter: NLRP3 puncta in 293T cells expressing STING-HA; assay type: cell-based, human; conditions: 1 μM diABZI, 1 hour

Compound: cyclic GMP-AMP [cGAMP]
- IL-1ß release upon STING agonist stimulation [1]: induced

Compound: STING H50R: human STING polypeptide with H50R substitution in TM2, inside the pore area
- LC3 induction within pSTING+ cells (STING-induced autophagy) [2]: reduced
- LC3 induction within pSTING+ cells (STING-induced autophagy) ([2]; listed as H50R): strongly inhibit

Compound: COc1cc2cc(C(=O)CCC(=O)O)sc2cc1OC [MSA2]
- LC3 lipidation upon agonist treatment [3]: LC3 lipidation was induced

Compound: AQQA: STING oligomerization-deficient mutant (A277Q/Q273A STING)
- autophagy induction (LC3B lipidation) upon agonist stimulation [4]: impaired LC3B lipidation

Compound: CCn1nc(C)cc1C(=O)Nc1nc2cc(C(N)=O)cc(OC)c2n1C/C=C/Cn1c(NC(=O)c2cc(C)nn2CC)nc2cc(C(N)=O)cc(OCCCN3CCOCC3)c21 [diABZI]
- fluorescence within the endolysosomal compartment [5]: only modestly altered
- pH within the Golgi apparatus (decreased fluorescence of Lysosensor Green dye) [5]: significant increase in pH
- LC3 lipidation upon agonist treatment [3]: LC3 lipidation was induced
- NLRP3 translocation upon stimulation [6]: NLRP3 translocated from the cytoplasm to perinuclear vesicles
- IL-1ß release upon STING agonist stimulation [1]: induced

Compound: CO[C@@H]1C[C@@H](C[C@H]2CC[C@H](C)[C@H]([C@@H](C)C(=O)O)O2)O[C@]2(O[C@](C)([C@H]3CC[C@@](C)([C@@H]4O[C@@H]([C@H]5O[C@@](O)(CO)[C@H](C)C[C@@H]5C)C[C@@H]4C)O3)C[C@H]2C)[C@@H]1C [Nigericin]
- LC3 lipidation by independent ionophore stimulus ([3]; BJ1 cells, 2 μM Nigericin): induction of LC3 lipidation
